Measurements published in patent US20130143902A1, “COMPOSITIONS AND METHODS OF TREATING A PROLIFERATIVE DISEASE WITH A QUINAZOLINONE DERIVATIVE” (GILEAD CALISTOGA LLC, priority 2011, published 2013).

Assays:
OVCAR-3 = assay: pAkt pathway inhibition, OVCAR-3; format: cell-based; details: Homo sapiens; OVCAR-3, Ovarian
PTEN null T-ALL = assay: Diseased Lck/PTEN^fl/fl mice with PTEN null T-ALL; format: in vivo; details: 30 mg/kg BID; for leukemia cells: about 125 million at Day 0
Method: Mouse whole blood was incubated with appropriate antibodies and processed using the BD Bioscience BD FACS Lysing Solution according to the manufacturer's instructions. Immediately after lysis, cells were permeabilized with 0.025% Tween-20 in lysing solution for 15 minutes, then incubated with Ki67 antibodies. Single cell suspensions of thymocytes were isolated and stained with the appropriate antibodies as described in Swat, W. et al., Essential role of PI3 Kdelta and PI3 Kgamma in thymocyte survival, Blood 107, 2415-2422 (2006).
All mice were kept in specific pathogen-free facility at Columbia University Medical Center. All procedures were performed in accordance with the guidelines of the Institutional Animal Care and Use Committee. Lck-cre, NOD.Cg-Prkdc^scid Il2rg^tmlWjl/Sz and Gt(ROSA)26Sor^tml(Luc)Kael/J mice were obtained from the Jackson Laboratory. Mice deficient for PTEN in the T-cell lineage were generated by crossing Lck-cre with floxed PTEN. P110γ^−/− and p110δ^−/− mice as described in Swat, W. et al., Essential role of PI3 Kdelta and PI3 Kgamma in thymocyte survival, Blood 107, 2415-2422 (2006). The animals were intercrossed with Lck-cre/PTEN^fl/fl animals to generate mice homozygous mutant for either p110γ or p110δ and PTEN or homozygous mutant for p110γ, 110δ, and PTEN.
Lck/PTEN^fl/fl mice were crossed with the mice having a luciferase cDNA, preceded by a LoxP-stop-LoxP cassette was introduced into the ubiquitously expressed ROSA26 locus. […] The results are consistent with the reduction in whole blood cells and CD4 single positive population of tumor cells.
Lck/PTEN^fl/fl mice having T-ALL were administered with Compound B at an oral dose of 10 mg/kg every 8 hours or DMSO vehicle for a period of 7 days. […] Compound B extended the median survival to 45 days compared to 7.5 days for the vehicle group (data not shown).
Diseased Lck/PTEN^fl/fl mice (i.e. Lck/PTEN^fl/fl mice diagnosed with T-ALL) were treated with Compounds B for a period of 7 days. Mice were examined for sequential blood counts, peripheral smears, and flow cytometric analyses. […] Forward scatter (FSC) and Ki67 staining were indicators of cell size and proliferation, respectively; and apoptosis was detected by assessing the […] population after PI staining.
PTEN^fl/fl mice were crossed with the mice having a luciferase cDNA, preceded by a LoxP-stop-LoxP cassette was introduced into the ubiquitously expressed ROSA26 locus. Progeny were then crossed with Lck-cre transgenics to delete PTEN in T-cell progenitors and induce expression of luciferase. Imaging on T-ALL tumor bearing mice was performed at Day 0 and 4 after treatment of Compound B or vehicle.

CC(Nc1ncnc2[nH]cnc12)c1nc2cccc(Cl)c2c(=O)n1-c1ccccc1 (centres unmarked) [Compound A, 2-(1-(9H-purin-6-ylamino)ethyl)-5-chloro-3-phenylquinazolin-4(3H)-one]
EC50 (OVCAR-3): 647 nM
CD3 levels (PTEN null T-ALL): reduced
leukemia cells (PTEN null T-ALL; Day 4): about 5.6 million
leukemia cells (PTEN null T-ALL; Day 7): about 4.2 million
white blood cells (PTEN null T-ALL; by Day 4): significant reduction
